Common to all, as to format: functional
One test has as its system Sida spinosa. Description: Phytotoxicity against Prickly sida assessed as leaf necrotic lesions at 100 ug by detached leaf spot method.
The subject of a further test is Nasturtium officinale. Description: Phytotoxicity against watercress assessed as leaf necrotic lesions at 100 ug by detached leaf spot method.
Test [1] has as its system Curtobacterium flaccumfaciens. Description: Antimicrobial activity against Corynebacterium flaccumfaciens at 500 ug/disk. Particulars: for zone of inhibition at 500 µg/disc: read-out: IZ.
Test [2] relates to Cornus florida. Kind of test: Phytotoxicity against Dogwood NCPV 101 assessed as leaf necrotic lesions at 50 ug by detached leaf spot method.
Another test has as its system Datura stramonium. Description: Phytotoxicity against Jimsonweed assessed as leaf necrotic lesions at 100 ug by detached leaf spot method.
Test [3] relates to Cornus florida. Kind of test: Phytotoxicity against Dogwood NCPV 100 assessed as leaf necrotic lesions at 50 ug by detached leaf spot method.
The subject of the next test is Penicillium chrysogenum. Kind of test: Antimicrobial activity against Penicillium notatum at 500 ug/disk. To be noted: for zone of inhibition at 500 µg/disc: read-out: IZ.
In a further test the test system is Colletotrichum acutatum. Description: Antimicrobial activity against Colletotrichum acutatum at 500 ug/disk. Particulars: for zone of inhibition at 500 µg/disc: read-out: IZ.
For a further test, the system named is Ambrosia artemisiifolia. Kind of test: Phytotoxicity against ragweed assessed as leaf necrotic lesions at 100 ug by detached leaf spot method.
The subject of another test is Senna obtusifolia. Description: Phytotoxicity against Sicklepod assessed as leaf necrotic lesions at 100 ug by detached leaf spot method.
The test system of another test is Aspergillus flavus. Description: Antimicrobial activity against Aspergillus flavus at 500 ug/disk. Particulars: for zone of inhibition at 500 µg/disc: read-out: IZ.
Test [4] relates to Cornus florida. Kind of test: Phytotoxicity against Dogwood NCPV 102 assessed as leaf necrotic lesions at 50 ug by detached leaf spot method.
In the next test the test system is Sorghum. Description: Phytotoxicity against Sorghum assessed as leaf necrotic lesions at 100 ug by detached leaf spot method.
For test [5], the system named is Agrobacterium tumefaciens. Kind of test: Antimicrobial activity against Agrobacterium tumefaciens at 500 ug/disk. Particulars: for zone of inhibition at 500 µg/disc: read-out: IZ.
In the next test the test system is Sorghum halepense. Kind of test: Phytotoxicity against Johnsongrass assessed as leaf necrotic lesions at 100 ug by detached leaf spot method.
For test [6], the system named is Pectobacterium carotovorum. Description: Antimicrobial activity against Erwinia carotovora at 500 ug/disk. To be noted: for zone of inhibition at 500 µg/disc: read-out: IZ.
For another test, the system named is Chenopodium album. Description: Phytotoxicity against Lamb's quarters assessed as leaf necrotic lesions at 100 ug by detached leaf spot method.
In the next test the test system is Convolvulaceae. Kind of test: Phytotoxicity against Morning glory assessed as leaf necrotic lesions at 100 ug by detached leaf spot method.
Another test deals with Escherichia coli. Kind of test: Antimicrobial activity against Escherichia coli at 500 ug/disk. Particulars: for zone of inhibition at 500 µg/disc: read-out: IZ.

This is an account of results in ChEMBL document CHEMBL1158983, “Toxins Produced by the Dogwood Anthracnose Fungus Discula sp” (1991).

The structures appear in SMILES notation. Calls of active or inactive are those of the source. The calls are words filed in the database; no cut-off is given here.

Turning to `CC(C)=CCc1cc(C(=O)O)ccc1O`, the Activity worked out at 42 mm2 in the test on Sida spinosa; 56 mm2 in the test on Nasturtium officinale; 14 mm2 in the test on Cornus florida [2]; 31 mm2 in the test with Datura stramonium; 38 mm2 in the test on Cornus florida [3]; 36 mm2 in the test on Ambrosia artemisiifolia. Also, the Activity in the test with Senna obtusifolia was found to be 22 mm2; in the test with Cornus florida [4] it was 24 mm2; in the test with Sorghum, 75 mm2; with Sorghum halepense it was 46 mm2; in the test with Chenopodium album, 23 mm2; in the test with Convolvulaceae, 28 mm2. Also, the zone of inhibition at 500 µg/disc in [1] amounted to 5 mm; in the test with Penicillium chrysogenum, 6 mm; with Colletotrichum acutatum, 8 mm; in the test with Aspergillus flavus, 4 mm; in [5], 8 mm; in test [6], 5 mm. For the same compound, the zone of inhibition at 500 µg/disc in the test with Escherichia coli was found to be 0 mm.
For `CC(=O)Oc1cc(O)c2c(c1)C[C@H](C)OC2=O`, the Activity worked out at 34 mm2 in the test with Sida spinosa; 31 mm2 with Nasturtium officinale; 1 mm2 in the test on Cornus florida [2]; 18 mm2 with Datura stramonium; 2 mm2 in the test on Cornus florida [3]; 30 mm2 in the test on Ambrosia artemisiifolia. The Activity turned out to be 14 mm2 with Senna obtusifolia; 1 mm2 in the test with Cornus florida [4]; 24 mm2 with Sorghum; 24 mm2 in the test with Sorghum halepense; 6 mm2 in the test on Chenopodium album; 13 mm2 with Convolvulaceae. Also, the result (in [1]; in the test on Penicillium chrysogenum; in the test on Colletotrichum acutatum; with Aspergillus flavus; in test [5]; in [6]) was inactive. Moreover, in the test with Escherichia coli, the outcome was inactive.
As for `O=C1CC[C@@H](O)c2cccc(O)c21`, the Activity with Sida spinosa is given as 18 mm2; in the test on Nasturtium officinale, 14 mm2; with Cornus florida [2], 5 mm2; in the test on Datura stramonium, 6 mm2; with Cornus florida [3], 12 mm2; in the test with Ambrosia artemisiifolia, 12 mm2. Further, the Activity in the test on Senna obtusifolia is given as 2 mm2; in the test with Cornus florida [4], 13 mm2; in the test on Sorghum, 7 mm2; in the test on Sorghum halepense it was 13 mm2; with Chenopodium album it was 5 mm2; in the test with Convolvulaceae, 4 mm2. The outcome (in test [1]; in the test on Penicillium chrysogenum; with Colletotrichum acutatum; in the test on Aspergillus flavus; in test [5]; in test [6]) was inactive. The outcome with Escherichia coli was inactive.
As for `C[C@H]1Cc2cc(O)cc(O)c2C(=O)O1`, the Activity in the test with Sida spinosa came to 40 mm2; in the test on Nasturtium officinale it was 36 mm2; with Cornus florida [2] it was 14 mm2; in the test on Datura stramonium, 24 mm2; with Cornus florida [3] it was 7 mm2; in the test with Ambrosia artemisiifolia, 60 mm2. The Activity with Senna obtusifolia was determined as 20 mm2; in the test with Cornus florida [4] it was 10 mm2; with Sorghum, 40 mm2; in the test on Sorghum halepense, 34 mm2; in the test on Chenopodium album, 14 mm2; with Convolvulaceae, 24 mm2. For the same compound, the result (in test [1]; in the test on Penicillium chrysogenum; with Colletotrichum acutatum; in the test on Aspergillus flavus; in test [5]; in [6]) was inactive. For the same compound, in the test on Escherichia coli, the outcome was inactive.
For the compound `CC(=O)Oc1ccc(C(=O)O)cc1CC=C(C)C`, the Activity amounted to 36 mm2 in the test with Sida spinosa; 48 mm2 with Nasturtium officinale; 23 mm2 in the test with Cornus florida [2]; 22 mm2 in the test with Datura stramonium; 51 mm2 in the test on Cornus florida [3]; 38 mm2 in the test on Ambrosia artemisiifolia. The Activity in the test with Senna obtusifolia came out at 18 mm2; in the test on Cornus florida [4], 42 mm2; with Sorghum, 73 mm2; in the test with Sorghum halepense, 51 mm2; in the test with Chenopodium album, 8 mm2; in the test with Convolvulaceae it was 19 mm2. The zone of inhibition at 500 µg/disc in [1] turned out to be 10 mm; in the test with Penicillium chrysogenum it was 5 mm; with Colletotrichum acutatum, 6 mm; in the test on Aspergillus flavus, 5 mm; in test [5], 6 mm; in test [6], 4 mm. Further, the zone of inhibition at 500 µg/disc in the test on Escherichia coli is 0 mm.
As for `O=C(O)c1ccc(O)cc1` [PARABEN], the Activity with Sida spinosa was 31 mm2; in the test with Nasturtium officinale it was 17 mm2; with Cornus florida [2], 10 mm2; with Datura stramonium it was 12 mm2; with Cornus florida [3] it was 11 mm2; with Ambrosia artemisiifolia it was 15 mm2. Moreover, the Activity with Senna obtusifolia is 10 mm2; in the test with Cornus florida [4] it was 5 mm2; in the test with Sorghum it was 19 mm2; in the test on Sorghum halepense, 22 mm2; in the test on Chenopodium album, 9 mm2; with Convolvulaceae it was 15 mm2. In addition, the zone of inhibition at 500 µg/disc in test [1] worked out at 9 mm; in the test with Penicillium chrysogenum, 0 mm; with Colletotrichum acutatum, 0 mm; in the test with Aspergillus flavus it was 0 mm; in test [5], 0 mm; in test [6], 0 mm. In addition, the zone of inhibition at 500 µg/disc in the test with Escherichia coli worked out at 5 mm.
